Read-outs that look alike come from different tables or passages of the source.
Key:
[1] = system: P. falciparum 3D7 parasites; experiment: P. falciparum growth inhibition assay, 1-cycle (72 h treatment), SYBR DNA staining (library screen at 2 μg/mL and dose-response); type: cell-based, Plasmodium falciparum; conditions: for activity at 2 µg/mL: Plasmodium falciparum, 3D7; P. falciparum, 2 μg/mL, 72 h; read-out: 1) Growth (%) at 72 h
[2] = system: P. falciparum 3D7 parasites; experiment: P. falciparum growth inhibition assay, 2-cycle (120 h treatment), delayed-death screen and dose-response; type: cell-based, Plasmodium falciparum; conditions: for 2) Growth (%) at 120 h / 3) Fold change (72 h/120 h): P. falciparum, 2 μg/mL; for 3) Fold change (72 h/120 h): growth at 72 h / growth at 120 h; for activity at 2 µg/mL: Plasmodium falciparum, 3D7; P. falciparum, 2 μg/mL, 120 h; read-out: 2) Growth (%) at 120 h
[3] = 3D7, 72 h treatment, mean ± S.D., n ≥ 3, read-out: IC50 (μM), P. falciparum
[4] = P. falciparum, 72 h, 2 μg/mL, mean of both replicates, growth (% of control)
[5] = 72 h treatment, read-out: IC50, P. falciparum
[6] = Plasmodium falciparum, 3D7, 72 h treatment, mean ± S.D., n ≥ 3, read-out: IC50 (μM), P. falciparum

Compound | 2) Growth (%) at 120 h [2] | 3) Fold change (72 h/120 h) [2] | 1) Growth (%) at 72 h ([1]; P. falciparum, 2 μg/mL, 72 h) | other results
CCO[C@@H]1[C@@H](OC)[C@H](C)O[C@@H](O[C@@H]2C[C@H]3CC[C@@H]4[C@@H](C=C5C(=O)[C@H](C)[C@@H](O[C@H]6CC[C@H](N(C)C)[C@@H](C)O6)CCC[C@H](CC)OC(=O)C[C@H]54)[C@@H]3C2)[C@@H]1OC [3-Ethoxy-5,6-dihydrospinosyn J] |  |  |  | IC50 [1, 3]: 0.42 ± 0.22 µM
CN=C1NC(=O)[C@H]([C@H](C)c2c[nH]c3ccccc23)O1 [Indolmycin] | 17.39% | 2.6 | 44.88% | 
CCCC(=O)O[C@H]1[C@H](C)O[C@@H](O[C@H]2[C@H](N(C)C)[C@@H](O)[C@H](O[C@H]3[C@@H](CC=O)C[C@@H](C)[C@@H](O)/C=C/C=C/C[C@@H](C)OC(=O)C[C@@H](O)[C@@H]3OC)O[C@@H]2C)C[C@@]1(C)O [Leucomycin A5] | 12.18% | 5.4 | 66.05% | 
CCO[C@@H]1[C@@H](OC)[C@H](C)O[C@@H](O[C@H]2C[C@H]3[C@@H]4C=C5C(=O)[C@H](C)[C@@H](O[C@H]6CC[C@H](N(C)C)[C@@H](C)O6)CCC[C@H](CC)OC(=O)C[C@H]5[C@@H]4C=C(C)[C@@H]3C2)[C@@H]1OC [3-Ethoxyspinosyn L] |  |  |  | IC50 [1, 3]: 0.57 ± 0.28 µM
Oc1cc(O)cc(O)c1 [Phloroglucinol] |  | 3.9 |  | activity at 2 µg/mL [2]: 13.2%; activity at 2 µg/mL [1]: 51.2%
4-O-methylammocidin | 13.10% | 3.3 | 43.16% | 
CC[C@H]1/C=C/C=C/C[C@@H](C)[C@H](O)[C@@](C)(O)C(=O)[C@@H](C)[C@H](O)[C@@H](C)C(=O)[C@@H](C)[C@H](O)[C@@H](C)/C=C/C(=O)O[C@H]2C[C@@]3(CC[C@H](C)[C@H](C[C@@H](C)O)O3)O[C@@H](CC1)[C@H]2C [Oligomycin D] | 14.87% | 1.5 | 21.67% | Mean [1, 4]: 21.67
CC1=C[C@H]2C(=O)O[C@H]3C[C@@H](C/C=C(\C)C[C@@H](C)/C=C/C=C4\CO[C@H]([C@@H]1O)[C@@]42O)O[C@]1(C3)C[C@H](O)[C@H](C)[C@@H](/C(C)=C/C(C)C)O1 [Nemadectin] | 11.78% | 1.9 | 21.98% | Mean [1, 4]: 21.98
Cc1cc(=O)n2c3c(c4c(cc13)c(CO)cc(=O)n4C)OC2 [Nybomycin] | 16.54% | 1.9 | 31.94% | Mean [1, 4]: 31.94
CC1=C[C@H]2[C@H](O)[C@H](O)CC[C@H]2[C@@](C)(C(O)=C2C(=O)CNC2=O)[C@@H]1CCC(C)C(O)/C(C)=C/CC(O)/C=C/C(C)C(O)/C=C/CC(O)/C(C)=C/CC(O)CC1CCCN1C(=N)N (stereo partly shown) [Lydicamycin] |  |  |  | Mean [1, 4]: 36.70
CCO[C@@H]1[C@@H](OC)[C@H](C)O[C@@H](O[C@@H]2C[C@H]3CC[C@@H]4[C@@H](C=C5C(=O)[C@H](C)[C@@H](O)CCC[C@H](CC)OC(=O)C[C@H]54)[C@@H]3C2)[C@@H]1OC [3-Ethoxy-5,6-dihydrospinosyn J pseudoaglycone] |  |  |  | IC50 [1, 3]: > 1 µM; Screen (P. falciparum) ([1]; library screen at 2 μg/mL, 3D7, 72 h, DD from the 120 h timepoint): I
Bischloroanthra-benzoxocinone |  |  |  | Mean [1, 4]: 31.15
CC[C@H]1CCC[C@H](O)[C@@H](C)C(=O)C2=C[C@@H]3[C@@H](C=C(C)[C@@H]4C[C@@H](O[C@@H]5O[C@@H](C)[C@H](OC)[C@@H](OC)[C@H]5OC)C[C@@H]34)[C@@H]2CC(=O)O1 [Spinosyn D pseudoaglycone] |  |  |  | IC50 [1, 3]: > 1 µM
COC(=O)C1=CO[C@@H](C)[C@@H]2CN3CCc4c([nH]c5cc(OC)c(OC)cc45)[C@@H]3C[C@H]12 [Isoreserpiline] | 4.30% | 5.7 | 24.60% | 
CCC[C@@H]1C[C@@H](C(=O)N[C@@H]([C@H]2O[C@H](SC)[C@H](O)[C@@H](O)[C@H]2O)[C@@H](C)O)N(C)C1 [Lincomycin, reference compound] |  | 3.8 |  | activity at 2 µg/mL [2]: 14.1%; activity at 2 µg/mL [1]: 54.4%
C/C=C(/NC(=O)c1csc(-c2csc(-c3ccc4c(n3)-c3csc(n3)C(C(C)OC)NC(=O)c3csc(n3)C(C(C)(C)O)NC(=O)c3csc(n3)/C(=C\C)NC(=O)C(C(C)O)NC(=O)c3csc-4n3)n2)n1)C(=O)NCC(C)O (stereo not shown) [Thiocillin II] |  |  |  | IC50 [1, 3]: 0.161 ± 0.038 µM; IC50 [1, 5]: < 0.2 µM
CC[C@H](C)[C@H]1OC(=O)[C@H](Cc2ccccc2)N(C)C(=O)[C@@H](C(C)C)OC(=O)[C@H](Cc2ccccc2)N(C)C(=O)[C@@H](C(C)C)OC(=O)[C@H](Cc2ccccc2)N(C)C1=O [Beauvericin A] |  |  |  | IC50 ([1]; Plasmodium falciparum, 3D7, 72 h treatment, read-out: IC50, P. falciparum): 0.33 µM; IC50 [1, 6]: 0.326 ± 0.095 µM
CN(C)[C@@H]1C(O)=C(C(N)=O)C(=O)[C@@]2(O)C(O)=C3C(=O)c4c(O)cccc4[C@@](C)(O)[C@H]3[C@H](O)[C@@H]12 [Oxytetracycline, reference compound] |  | 3.1 |  | activity at 2 µg/mL [2]: 15.2%; activity at 2 µg/mL [1]: 47.4%
CCCCCC(=O)O[C@H]1[C@H](C)O[C@@H](O[C@H]2[C@H](N(C)C)[C@@H](O)[C@H](O[C@H]3[C@@H](CC=O)C[C@@H](C)[C@@H](O)/C=C/C=C/C[C@@H](C)OC(=O)C[C@@H](O)[C@@H]3OC)O[C@@H]2C)C[C@@]1(C)O [Leucomycin A13] | 9.02% | 3.7 | 33.20% | 
CC[C@H](C)[C@H]1O[C@]2(CC[C@@H]1C)C[C@@H]1C[C@@H](C/C=C(\C)[C@@H](O[C@H]3C[C@H](OC)[C@@H](O)[C@H](C)O3)[C@@H](C)/C=C/C=C3\CO[C@@H]4[C@H](O)C(C)=C[C@@H](C(=O)O1)[C@]34O)O2 [Ivermectin B1a monosaccharide] |  |  |  | Mean [1]: 49.58
Methylcanidine | 11.61% | 1.8 | 21.12% | Mean [1, 4]: 21.12
CO[C@@H]1[C@@H](O[C@@H]2O[C@H](C)[C@@H](O[C@H]3C[C@@](C)(O)[C@@H](OC(=O)CC(C)C)[C@H](C)O3)[C@H](N(C)C)[C@H]2O)[C@@H](CC=O)C[C@@H](C)[C@@H](O)/C=C/C=C/C[C@@H](C)OC(=O)C[C@H]1O [Leucomycin A1] | 11.56% | 5.1 | 58.63% | 
Ikarugamycin |  |  |  | Mean [1, 4]: 48.31
CCCC[C@H](C)[C@@H]1CC(=O)N[C@@H](Cc2ccccc2)C(=O)N[C@@H](C)C(=O)N[C@H]([C@@H](C)CC)C(=O)O1 [Beauveriolide III] |  |  |  | IC50 [1, 6]: > 1 µM
Milbemycin oxime [reference compound] | 3.08% | 7.7 | 23.75% | 
CCO[C@@H]1[C@@H](OC)[C@H](C)O[C@@H](O[C@H]2C[C@H]3[C@@H]4C=C5C(=O)[C@H](C)[C@@H](O)CCC[C@H](CC)OC(=O)C[C@H]5[C@@H]4C=C(C)[C@@H]3C2)[C@@H]1OC [3-Ethoxyspinosyn L pseudoaglycone] |  |  |  | IC50 [1, 3]: > 1 µM
CC[C@H]1O[C@]2(CC[C@@H]1C)C[C@@H]1C[C@@H](C/C=C(\C)C[C@@H](C)/C=C/C=C3\CO[C@@H]4C(=NO)C(C)=C[C@@H](C(=O)O1)[C@]34O)O2 [Milbemycin A4 oxime] | 12.31% | 1.8 | 22.48% | Mean [1, 4]: 22.48
Thiocillin III |  |  |  | IC50 [1, 3]: 0.11 ± 0.006 µM; IC50 [1, 5]: < 0.2 µM

Source: paper PMC12396409, “Screening and hit evaluation of a microbial metabolite library against the pathogenic Plasmodium falciparum and Toxoplasma gondii parasites” (International Journal for Parasitology: Drugs and Drug …, 2025)
